# Like-named read-outs stand apart in the source and are kept apart here.
# Experiments:
# Test in all cases: Anti-proliferative assay, cell-titre luminescent reagent, 72 h (GVK-BIO)
# Format in all cases: cell-based
# [1] = tested on: SK-Mel-28 melanoma cells; conditions: Homo sapiens
# Method in brief: (§1)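 Two dose schemes were used: 30, 3, 0.3, 0.03 μM, giving IC50 by linear regression of percent of control against log concentration; and 30, 10, 3, 1, 0.3, 0.1 μM, giving EC50 by nonlinear variable-slope regression after normalizing to vehicle. Cells had attached for 24 h beforehand.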
# [2] = tested on: SK-N-SH neuroblastoma cells; conditions: Homo sapiens
# Method in brief: as §1
# [3] = tested on: DU145 prostate cancer cells; conditions: Homo sapiens
# Method in brief: as §1
# [4] = tested on: PC3 prostate cancer cells
# Method in brief: as §1
# [5] = tested on: MDA-MB-231 triple negative breast cancer cells; conditions: Homo sapiens
# Method in brief: as §1
# [6] = tested on: A549 non-small cell lung carcinoma cells; conditions: Homo sapiens, read-out: IC50/μM Lung (NSLC) A549
# Method in brief: as §1
# [7] = tested on: CaCo2 colorectal cancer cells; conditions: Homo sapiens
# Method in brief: as §1
# [8] = SK-MEL-28, 72 h, 30, 3, 0.3 and 0.03 μM, linear regression (Tables 2-4)
# [9] = SK-N-SH, 30, 3, 0.3 and 0.03 μM, linear regression (Tables 2-4)
# [10] = DU-145, 72 h, 30, 3, 0.3 and 0.03 μM, linear regression (Tables 2-4)
# [11] = 30, 3, 0.3 and 0.03 μM, linear regression (Tables 2-4)
# [12] = MDA-MB-231, 72 h, 30, 3, 0.3 and 0.03 μM, linear regression (Tables 2-4)
# [13] = A549, 72 h, 30, 3, 0.3 and 0.03 μM, linear regression (Tables 2-4)
# [14] = Caco-2, 72 h, 30, 3, 0.3 and 0.03 μM, linear regression (Tables 2-4)
# [15] = SK-MEL-28, 72 h, 30, 10, 3, 1, 0.3 and 0.1 μM, nonlinear regression (Table 5)
# [16] = SK-N-SH, 30, 10, 3, 1, 0.3 and 0.1 μM, nonlinear regression (Table 5)
# [17] = DU-145, 72 h, 30, 10, 3, 1, 0.3 and 0.1 μM, nonlinear regression (Table 5)
# [18] = 30, 10, 3, 1, 0.3 and 0.1 μM, nonlinear regression (Table 5)
# [19] = MDA-MB-231, 72 h, 30, 10, 3, 1, 0.3 and 0.1 μM, nonlinear regression (Table 5)
# [20] = A549, 72 h, 30, 10, 3, 1, 0.3 and 0.1 μM, nonlinear regression (Table 5)
# [21] = Caco-2, 72 h, 30, 10, 3, 1, 0.3 and 0.1 μM, nonlinear regression (Table 5)
"IC50 [1, 8]","IC50 [2, 9]","IC50 [3, 10]","IC50 [4, 11]","IC50 [5, 12]","IC50 [6, 13]","IC50 [7, 14]","IC50 [1, 15]","IC50 [2, 16]","IC50 [3, 17]","IC50 [4, 18]","IC50 [5, 19]","IC50 [6, 20]","IC50 [7, 21]",SMILES
3.3 µM,3.4 µM,5.2 µM,7.8 µM,3.9 µM,4 µM,> 30 µM,,,,,,,,"CN(C)CCCn1ccc2cc(Nc3ccc(C(=O)Nc4ccc5c(c4)OCO5)cc3)ccc21 [Compound 4101, N-(benzo[d][1,3]dioxol-5-yl)-4-((1-(3-(dimethylamino)propyl)-1H-indol-5-yl)amino)benzamide]"
3.5 µM,3.5 µM,6 µM,5.5 µM,3.6 µM,4 µM,> 30 µM,,,,,,,,"CN(C)CCCn1ccc2cc(Nc3ccc(C(=O)Nc4cccc(F)c4)cc3)ccc21 [Compound 4102, 4-((1-(3-(dimethylamino)propyl)-1H-indol-5-yl)amino)-N-(3-fluorophenyl)benzamide]"
5.4 µM,2.9 µM,3.7 µM,5.4 µM,2.7 µM,3 µM,5 µM,,,,,,,,"COc1cccc(NC(=O)c2ccc(Nc3ccc4c(ccn4CCCN(C)C)c3)cc2)c1 [Compound 4103, 4-((1-(3-(dimethylamino)propyl)-1H-indol-5-yl)amino)-N-(3-methoxyphenyl)benzamide]"
3.6 µM,3.4 µM,4.1 µM,4.1 µM,4.2 µM,4 µM,3.2 µM,,,,,,,,"Cc1c(C)n(CCCN(C)C)c2ccc(Nc3ccc(C(=O)Nc4ccc(F)cc4)cc3)cc12 [Compound 4104, 4-((1-(3-(dimethylamino)propyl)-2,3-dimethyl-1H-indol-5-yl)amino)-N-(4-fluorophenyl)benzamide]"
2.6 µM,3.4 µM,3.6 µM,3.7 µM,2.7 µM,3.6 µM,2.6 µM,,,,,,,,"COc1ccc(NC(=O)c2ccc(Nc3ccc4c(c3)c(C)c(C)n4CCCN(C)C)cc2)cc1 [Compound 4105, 4-((1-(3-(dimethylamino)propyl)-2,3-dimethyl-1H-indol-5-yl)amino)-N-(4-methoxyphenyl)benzamide]"
2.6 µM,1.8 µM,3.1 µM,3.6 µM,1.9 µM,2.4 µM,2.8 µM,,,,,,,,"Cc1c(C)n(CCCN(C)C)c2ccc(Nc3ccc(C(=O)Nc4ccc5c(c4)OCO5)cc3)cc12 [Compound 4106, N-(benzo[d][1,3]dioxol-5-yl)-4-((1-(3-(dimethylamino)propyl)-2,3-dimethyl-1H-indol-5-yl)amino)benzamide]"
2.8 µM,3.6 µM,3.5 µM,3.5 µM,2.8 µM,2.9 µM,3.6 µM,,,,,,,,"Cc1c(C)n(CCCN(C)C)c2ccc(Nc3ccc(C(=O)Nc4cccc(F)c4)cc3)cc12 [Compound 4107, 4-((1-(3-(dimethylamino)propyl)-2,3-dimethyl-1H-indol-5-yl)amino)-N-(3-fluorophenyl)benzamide]"
2.9 µM,2.9 µM,3.5 µM,3.6 µM,2.2 µM,3.4 µM,2.1 µM,,,,,,,,"COc1cccc(NC(=O)c2ccc(Nc3ccc4c(c3)c(C)c(C)n4CCCN(C)C)cc2)c1 [Compound 4108, 4-((1-(3-(dimethylamino)propyl)-2,3-dimethyl-1H-indol-5-yl)amino)-N-(3-methoxyphenyl)benzamide]"
,,,,,,,> 30 µM,> 30 µM,> 30 µM,> 30 µM,> 30 µM,> 30 µM,> 30 µM,"Cc1c(C)n(CCCN(C)C)c2ccc(C(=O)N3CCN(CCc4ccc(O)cc4)CC3)cc12 [Compound 4119, (1-(3-(dimethylamino)propyl)-2,3-dimethyl-1H-indol-5-yl)(4-(4-hydroxyphenethyl)piperazin-1-yl)methanone]"

# More lines, now with the values behind:
SMILES,"IC50 [1, 8]","IC50 [2, 9]","IC50 [3, 10]","IC50 [4, 11]","IC50 [5, 12]","IC50 [6, 13]","IC50 [7, 14]","IC50 [1, 15]","IC50 [2, 16]","IC50 [3, 17]","IC50 [4, 18]","IC50 [5, 19]","IC50 [6, 20]","IC50 [7, 21]"
"Cc1c(C)n(CCCN(C)C)c2ccc(CN3CCN(CCc4ccc(F)cc4)CC3)cc12 [Compound 4109, 3-(5-((4-(4-fluorophenethyl)piperazin-1-yl)methyl)-2,3-dimethyl-1H-indol-1-yl)-N,N-dimethylpropan-1-amine]",,,,,,,,1 µM,3.7 µM,5.3 µM,9.5 µM,3.6 µM,6.5 µM,9.1 µM
"Cc1c(C)n(CCCN2CCN(C)CC2)c2ccc(CN3CCN(CCc4ccc(F)cc4)CC3)cc12 [Compound 4110, 5-((4-(4-fluorophenethyl)piperazin-1-yl)methyl)-2,3-dimethyl-1-(3-(4-methylpiperazin-1-yl)propyl)-1H-indole]",,,,,,,,4.4 µM,4.2 µM,22.7 µM,17.7 µM,6.9 µM,33.2 µM,12.9 µM
"COc1ccc(CCN2CCN(Cc3ccc4c(c3)c(C)c(C)n4CCCN3CCN(C)CC3)CC2)cc1 [Compound 4111, 5-((4-(4-methoxyphenethyl)piperazin-1-yl)methyl)-2,3-dimethyl-1-(3-(4-methylpiperazin-1-yl)propyl)-1H-indole]",,,,,,,,2.4 µM,3.4 µM,11.3 µM,7.5 µM,3.9 µM,5.5 µM,7.9 µM
"Cc1c(C)n(CCCN2CCN(C)CC2)c2ccc(CN3CCN(CCc4ccc(O)cc4)CC3)cc12 [Compound 4112, 4-(2-(4-((2,3-dimethyl-1-(3-(4-methylpiperazin-1-yl)propyl)-1H-indol-5-yl)methyl)piperazin-1-yl)ethyl)phenol]",,,,,,,,13 µM,7 µM,8.3 µM,8.4 µM,11.8 µM,5.9 µM,17.5 µM
"COc1cccc(CCN2CCN(Cc3ccc4c(c3)c(C)c(C)n4CCCN3CCN(C)CC3)CC2)c1 [Compound 4115, 5-((4-(3-methoxyphenethyl)piperazin-1-yl)methyl)-2,3-dimethyl-1-(3-(4-methylpiperazin-1-yl)propyl)-1H-indole]",,,,,,,,1.1 µM,4.9 µM,6.1 µM,9.4 µM,3.4 µM,8.8 µM,6.2 µM
"Cc1c(C)n(CCCN2CCN(C)CC2)c2ccc(CN3CCN(CCc4cccc(O)c4)CC3)cc12 [Compound 4116, 3-(2-(4-((2,3-dimethyl-1-(3-(4-methylpiperazin-1-yl)propyl)-1H-indol-5-yl)methyl)piperazin-1-yl)ethyl)phenol]",,,,,,,,3.2 µM,4.6 µM,7.6 µM,13.2 µM,4.1 µM,10.1 µM,6 µM
"Cc1c(C)n(CCCN2CCN(C)CC2)c2ccc(CN3CCN(CCc4ccccc4)CC3)cc12 [Compound 4117, 2,3-dimethyl-1-(3-(4-methylpiperazin-1-yl)propyl)-5-((4-phenethylpiperazin-1-yl)methyl)-1H-indole]",,,,,,,,2 µM,4.6 µM,5.6 µM,10.2 µM,3.5 µM,8.6 µM,8.2 µM
"Cc1c(C)n(CCCN(C)C)c2ccc(C(=O)N3CCN(CCc4ccc(F)cc4)CC3)cc12 [Compound 4118, (1-(3-(dimethylamino)propyl)-2,3-dimethyl-1H-indol-5-yl)(4-(4-fluorophenethyl)piperazin-1-yl)methanone]",18.1 µM,31.9 µM,> 30 µM,> 30 µM,> 30 µM,> 30 µM,> 30 µM,,,,,,,
"Cc1c(C)n(CCCN2CCN(C)CC2)c2ccc(C(=O)N3CCN(CCc4ccc(F)cc4)CC3)cc12 [Compound 4120, (2,3-dimethyl-1-(3-(4-methylpiperazin-1-yl)propyl)-1H-indol-5-yl)(4-(4-fluorophenethyl)piperazin-1-yl)methanone]",17.7 µM,13.8 µM,> 30 µM,> 30 µM,> 30 µM,23 µM,> 30 µM,,,,,,,
"COc1ccc(CCN2CCN(C(=O)c3ccc4c(c3)c(C)c(C)n4CCCN3CCN(C)CC3)CC2)cc1 [Compound 4121, (2,3-dimethyl-1-(3-(4-methylpiperazin-1-yl)propyl)-1H-indol-5-yl)(4-(4-methoxyphenethyl)piperazin-1-yl)methanone]",14.7 µM,13.6 µM,> 30 µM,> 30 µM,13.2 µM,15.7 µM,> 30 µM,,,,,,,

# From patent US20170166555A1, “FUNCTIONALISED AND SUBSTITUTED INDOLES AS ANTI-CANCER AGENTS” (Novogen Limited, priority 2013, published 2017)
